Assay results taken from PubChem BioAssay AID1259407 (Chemical Carcinogenesis Research Information System (CCRIS), 2018).
Activity calls are given as the source filed them. How the calls were made is not given here.

Tested on: CCRIS mutagenicity, Ames/micronucleus/aberration tests
Assay: CCRIS mutagenicity studies

Structure (SMILES): COS(C)(=O)=O
- mutagenic call (End Point: IN VITRO MICRONUCLEUS, Test System: CHINESE HAMSTER OVARY CELLS, Metabolic Activation: NONE): active; positive
- mutagenic call (End Point: IN VITRO MICRONUCLEUS, Test System: CHL/IU CELLS, Metabolic Activation: NONE): active; positive
- mutagenic call (End Point: IN VITRO MICRONUCLEUS, Test System: CHO CELLS, Metabolic Activation: RAT, LIVER, S-9, AROCLOR 1254): active; positive
- mutagenic call (End Point: IN VITRO MICRONUCLEUS, Test System: HUMAN FIBROBLASTS VH25 CELLS, Metabolic Activation: NONE): active; positive
- mutagenic call (End Point: IN VITRO MICRONUCLEUS, Test System: MOUSE LYMPHOMA L5178Y CELLS, Metabolic Activation: NONE): active; positive
- mutagenic call (End Point: IN VIVO MICRONUCLEUS, Test System: BONE MARROW POLYCHROMATIC ERYTHROCYTES, Species: MOUSE, Strain/Sex: SWISS/FEMALE, Route: IP): active; positive
- mutagenic call (End Point: IN VIVO MICRONUCLEUS, Test System: HEPATOCYTES, Species: RAT, Strain/Sex: FISHER 344 OR SD/MALE, Route: ORAL OR IP): inactive; negative
- mutagenic call (End Point: IN VIVO MICRONUCLEUS, Test System: PERIPHERAL BLOOD RETICULOCYTES, Species: RAT, Strain/Sex: FISHER 344 OR SD/MALE, Route: ORAL OR IP): active; positive
- mutagenic call (End Point: In vitro micronucleus, Test System: Chinese hamster ovary (CHO) cells, Metabolic Activation: None): active; positive (lycopene (10, 25 and 50 um) significantly reduced the number of micron
- mutagenic call (End Point: In vitro micronucleus, Test System: Chinese hamster ovary (CHO-WBL) cells, Metabolic Activation: None): active; positive (p<0.01)
- mutagenic call (Test System: AMES SALMONELLA TYPHIMURIUM, Strain/Indicator: TA97, Metabolic Activation: NONE, Method: STANDARD PLATE): active; positive
- mutagenic call (Test System: AMES SALMONELLA TYPHIMURIUM, Strain/Indicator: TA97, Metabolic Activation: RAT, LIVER, S-9, AROCLOR 1254, Method: STANDARD PLATE): inactive; negative
- mutagenic call (Test System: AMES SALMONELLA TYPHIMURIUM, Strain/Indicator: TA98, Metabolic Activation: NONE, Method: STANDARD PLATE): inactive; negative
- mutagenic call (Test System: AMES SALMONELLA TYPHIMURIUM, Strain/Indicator: TA98, Metabolic Activation: RAT, LIVER, S-9, AROCLOR 1254, Method: STANDARD PLATE): inactive; negative
- mutagenic call (Test System: AMES SALMONELLA TYPHIMURIUM, Strain/Indicator: TA100, Metabolic Activation: NONE, Method: STANDARD PLATE): active; positive
- mutagenic call (Test System: AMES SALMONELLA TYPHIMURIUM, Strain/Indicator: TA100, Metabolic Activation: RAT, LIVER, S-9, AROCLOR 1254, Method: STANDARD PLATE): inactive; negative
- mutagenic call (Test System: AMES SALMONELLA TYPHIMURIUM, Strain/Indicator: TA1535, Metabolic Activation: NONE, Method: STANDARD PLATE): active; positive
- mutagenic call (Test System: AMES SALMONELLA TYPHIMURIUM, Strain/Indicator: YG7100, Metabolic Activation: NONE, Method: PREINCUBATION): inactive; negative
- mutagenic call (Test System: AMES SALMONELLA TYPHIMURIUM, Strain/Indicator: YG7104, Metabolic Activation: NONE, Method: PREINCUBATION): active; positive
- mutagenic call (Test System: AMES SALMONELLA TYPHIMURIUM, Strain/Indicator: YG7108, Metabolic Activation: NONE, Method: PREINCUBATION): active; positive
- mutagenic call (Test System: AMES SALMONELLA TYPHIMURIUM, Strain/Indicator: YG7112, Metabolic Activation: NONE, Method: PREINCUBATION): active; positive
- mutagenic call (Test System: AMES SALMONELLA TYPHIMURIUM, Strain/Indicator: YG7113, Metabolic Activation: NONE, Method: PREINCUBATION): active; positive
- mutagenic call (Test System: AMES SALMONELLA TYPHIMURIUM, Strain/Indicator: YG7119, Metabolic Activation: NONE, Method: PREINCUBATION): active; positive
- mutagenic call (Test System: CHINESE HAMSTER OVARY, Strain/Indicator: CHO-K1-BH4 (HGPRT)/6-THIOGUANINE, Metabolic Activation: NONE, Method: SUSPENSION/PLATE): active; positive
- mutagenic call (Test System: CHINESE HAMSTER OVARY, Strain/Indicator: CHO-K1-BH4 (HGPRT), Metabolic Activation: NONE, Method: MONOLAYER): active; positive
- mutagenic call (Test System: CHINESE HAMSTER OVARY, Strain/Indicator: CHO-K1-BH4 (HGPRT), Metabolic Activation: NONE, Method: SUSPENSION/PLATE): active; positive
- mutagenic call (Test System: CHINESE HAMSTER V-79, Strain/Indicator: V-79/6-THIOGUANINE, Metabolic Activation: NONE, Method: FLASK ASSAY): active; positive
- mutagenic call (Test System: CHINESE HAMSTER V-79, Strain/Indicator: V-79/6-THIOGUANINE, Metabolic Activation: NONE, Method: STANDARD PLATE): active; positive
- mutagenic call (Test System: CHINESE HAMSTER V-79, Strain/Indicator: V-79/6-THIOGUANINE, Metabolic Activation: NONE, Method: SUSPENSION/PLATE): active; positive
- mutagenic call (Test System: CHINESE HAMSTER V-79, Strain/Indicator: V-79/8-AZAGUANINE, Metabolic Activation: NONE, Method: STANDARD PLATE): active; positive
- mutagenic call (Test System: CHINESE HAMSTER V-79, Strain/Indicator: V-79/OUABAIN, Metabolic Activation: NONE, Method: STANDARD PLATE): active; positive
- mutagenic call (Test System: CHINESE HAMSTER V-79, Strain/Indicator: V-79/OUABAIN, Metabolic Activation: NONE, Method: SUSPENSION/PLATE): inactive; negative
- mutagenic call (Test System: CHO/HGPRT, Strain/Indicator: CHO-K1-BH4, Metabolic Activation: NONE, Method: STANDARD PLATE): active; positive
- mutagenic call (Test System: E. COLI, Strain/Indicator: TK701 (PKM101), Metabolic Activation: NONE, Method: STANDARD PLATE): active; positive
- mutagenic call (Test System: E. COLI, Strain/Indicator: TK701, Metabolic Activation: NONE, Method: STANDARD PLATE): active; positive
- mutagenic call (Test System: E. COLI, Strain/Indicator: TK702 (PKM101), Metabolic Activation: NONE, Method: STANDARD PLATE): active; positive
- mutagenic call (Test System: E. COLI, Strain/Indicator: TK702, Metabolic Activation: NONE, Method: STANDARD PLATE): inactive; negative
- mutagenic call (Test System: E. COLI, Strain/Indicator: WP2, Metabolic Activation: NONE, Method: FLUCTUATION): active; positive
- mutagenic call (Test System: E. COLI, Strain/Indicator: WP2, Metabolic Activation: NONE, Method: PREINCUBATION): active; positive
- mutagenic call (Test System: E. COLI, Strain/Indicator: WP2, Metabolic Activation: NONE, Method: STANDARD PLATE): active; positive
- mutagenic call (Test System: E. COLI, Strain/Indicator: WP2 UVRA, Metabolic Activation: HAMSTER, LIVER, S-9, AROCLOR 1254, Method: STANDARD PLATE): active; positive
- mutagenic call (Test System: E. COLI, Strain/Indicator: WP2 UVRA, Metabolic Activation: HAMSTER, LIVER, S-9, Method: STANDARD PLATE): active; positive
- mutagenic call (Test System: E. COLI, Strain/Indicator: WP2 UVRA, Metabolic Activation: MOUSE, LIVER, S-9, AROCLOR 1254, Method: STANDARD PLATE): active; positive
- mutagenic call (Test System: E. COLI, Strain/Indicator: WP2 UVRA, Metabolic Activation: MOUSE, LIVER, S-9, Method: STANDARD PLATE): active; positive
- mutagenic call (Test System: E. COLI, Strain/Indicator: WP2 UVRA, Metabolic Activation: NONE, Method: FLUCTUATION): active; positive
- mutagenic call (Test System: E. COLI, Strain/Indicator: WP2 UVRA, Metabolic Activation: NONE, Method: PREINCUBATION): active; positive
- mutagenic call (Test System: E. COLI, Strain/Indicator: WP2 UVRA, Metabolic Activation: RAT, LIVER, S-9, AROCLOR 1254, Method: STANDARD PLATE): active; positive
- mutagenic call (Test System: E. COLI, Strain/Indicator: WP2 UVRA, Metabolic Activation: RAT, LIVER, S-9, Method: STANDARD PLATE): active; positive
- mutagenic call (Test System: MOUSE LYMPHOMA, Strain/Indicator: L5178Y (TK+/TK-), Metabolic Activation: NONE, Method: SUSPENSION/PLATE): active; positive
- mutagenic call (Test System: MOUSE LYMPHOMA, Strain/Indicator: L5178Y (TK+/TK-), Metabolic Activation: RAT, LIVER, S-9, AROCLOR 1254, Method: SUSPENSION/PLATE): active; positive
- mutagenic call (Test System: UDS HUMAN CELLS, Strain/Indicator: THY INCORP (NON-S-PHASE), Metabolic Activation: NONE, Method: AUTORADIOGRAPHY): active; positive
- mutagenic call (Test System: UDS HUMAN CELLS, Strain/Indicator: THY INCORP (NON-S-PHASE), Metabolic Activation: NONE, Method: LIQUID SCINTILLATION COUNTING): active; positive
- mutagenic call (Test System: UDS HUMAN KERATINOCYTES, Strain/Indicator: THY INCORP, Metabolic Activation: NONE, Method: AUTORADIOGRAPHY): active; positive
- mutagenic call (Test System: UDS HUMAN LYMPHOCYTES, Strain/Indicator: THY INCORP (NON-S-PHASE), Metabolic Activation: NONE, Method: LIQUID SCINTILLATION COUNTING): active; positive
- mutagenic call (Test System: UDS MONKEY HEPATOCYTES, Strain/Indicator: THY INCORP, Metabolic Activation: AROCLOR 1254, Method: AUTORADIOGRAPHY): active; positive
- mutagenic call (Test System: UDS MONKEY HEPATOCYTES, Strain/Indicator: THY INCORP, Metabolic Activation: NONE, Method: AUTORADIOGRAPHY): active; positive
- mutagenic call (Test System: UDS RAT HEPATOCYTES, Strain/Indicator: BROMODEOXYURIDINE INCORP, Metabolic Activation: NONE, Method: FLOW CYTOMETRIC ANALYSIS): active; positive
- mutagenic call (Test System: UDS RAT HEPATOCYTES, Strain/Indicator: THY INCORP, Metabolic Activation: NONE, Method: AUTORADIOGRAPHY): active; positive
- mutagenic call (Test System: UDS RAT PACHYTENE SPERMATOCYTES, Strain/Indicator: THY INCORP, Metabolic Activation: NONE, Method: LIQUID SCINTILLATION COUNTING): active; positive
- mutagenic call (Test System: UDS RODENT CELLS, Strain/Indicator: THY INCORP (NON-S-PHASE), Metabolic Activation: NONE, Method: AUTORADIOGRAPHY): active; positive
- mutagenic call (Test System: UDS RODENT CELLS, Strain/Indicator: THY INCORP (NON-S-PHASE), Metabolic Activation: NONE, Method: LIQUID SCINTILLATION COUNTING): active; positive
- mutagenic call (Test System: UDS RODENT HEPATOCYTES, Strain/Indicator: THY INCORP (NON-S-PHASE), Method: AUTORADIOGRAPHY): active; positive
- mutagenic call (Test System: UDS RODENT HEPATOCYTES, Strain/Indicator: THY INCORP (NON-S-PHASE), Method: LIQUID SCINTILLATION COUNTING): active; positive
- mutagenic call (Test System: UDS RODENT PRIMARY CELLS, Strain/Indicator: THY INCORP (NON-S-PHASE), Metabolic Activation: NONE, Method: LIQUID SCINTILLATION COUNTING): active; positive
- mutagenic call (Test System: UDS, Strain/Indicator: HEPG2/THYMIDINE INCORPORATION, Metabolic Activation: NONE, Method: AUTORADIOGRAPHY): active; positive
